The record followed here is US12459958B2, “Tricyclic compounds as HPK1 inhibitor and the use thereof” (BEIGENE, LTD., priority 2019, dated 2025).

Molecules are shown by their SMILES.

For this assay, the target named is T1, HPK1 kinase (aa1-346, Life Technologies) (Homo sapiens, UniProt Q92918).
T1 construct: HPK1 kinase (aa1-346, Life Technologies); purchased Life Technologies
T1 sequence (Q92918 1-346): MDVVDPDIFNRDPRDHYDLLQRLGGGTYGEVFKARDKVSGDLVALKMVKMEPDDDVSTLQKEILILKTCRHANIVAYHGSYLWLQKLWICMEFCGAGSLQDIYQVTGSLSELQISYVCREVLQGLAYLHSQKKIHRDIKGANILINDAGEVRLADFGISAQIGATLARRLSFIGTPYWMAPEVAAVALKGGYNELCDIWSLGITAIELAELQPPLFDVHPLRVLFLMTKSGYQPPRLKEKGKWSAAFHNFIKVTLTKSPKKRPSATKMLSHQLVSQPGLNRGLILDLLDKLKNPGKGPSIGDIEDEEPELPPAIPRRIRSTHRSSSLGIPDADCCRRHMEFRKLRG
The assay is described as follows: HPK Kinase Activity Assay at 1 mM ATP (TR-FRET). Format: biochemical. Particulars: HPK1 kinase 40 nM, 0.5 μM STK1 substrate, read-out: Enzymatic activity IC50. Here is the method: HPK Kinase Activity Assay at 1 mM ATP
Compounds disclosed herein were tested for inhibition of HPK1 kinase (aa1-346, Life Technologies) activity in assays based on the time-resolved fluorescence-resonance energy transfer (TR-FRET) methodology. The assays were carried out in 384-well low volume black plates in a reaction mixture containing HPK1 kinase (40 nM), 1 mM ATP, 0.5 μM STK1 substrate and 0-10 μM compound in buffer containing 50 mM HEPES, 0.01% BSA, 0.1 mM Orthovanadate, 10 mM MgCl2, 1 mM DTT, pH=7.0, 0.005% Tween-20. The kinase was incubated with the compounds disclosed herein or DMSO for 60 minutes at room temperature and the reaction was initiated by the addition of ATP and STK1 substrate. After reaction at room temperature for 120 minutes, an equal volume of stop/detection solution was added according to the manufacture's instruction (CisBio). The stop/detection solution contained STK Antibody-Cryptate and XL665-conjugated streptavidin in Detection Buffer. The TR-FRET signals (ratio of fluorescence emission at 665 nm over emission at 620 nm with excitation at 337 nm wavelength) were recorded on a PHERAstar FS plate reader (BMG Labtech). Phosphorylation of STK1 substrate led to the binding of STK Antibody-Cryptate to the biotinylated STK1 substrate, which places fluorescent donor (Eu^3+ crypate) in close proximity to the accepter (Streptavidin-XL665), thus resulting in a high degree of fluorescence resonance energy transfer. The inhibition of HPK1 in presence of increasing concentrations of compounds was calculated based on the ratio of fluorescence at 665 nm to that at 620 nm. The IC50 for each compound was derived from fitting the data to the four-parameter logistic equation by Graphpad Prism software.

Regarding `Cc1cc(-c2c[nH]c3ncc(-c4cc(C)c5c(c4)CC[C@H]4CN(C)CCN54)nc23)ccc1C(=O)N1CC2(COC2)C1` [Example 8B, (S)-(4-(2-(3,10-dimethyl-2,3,4,4a,5,6-hexahydro-1H-pyrazino[1,2-a]quinolin-8-yl)-5H-pyrrolo[2,3-b]pyrazin-7-yl)-2-methylphenyl)(2-oxa-6-azaspiro[3.3]heptan-6-yl)methanone], the IC50 (usually the concentration that inhibits the measured activity by half) was determined as 61 nM.
With `Cc1cc(-c2cnc3[nH]cc(-c4ccc(C(=O)N(C)CC(C)(C)O)cc4)c3n2)cc2c1N1CCN(C)C[C@@H]1CC2` [Example 12B, (S)-4-(2-(3,10-dimethyl-2,3,4,4a,5,6-hexahydro-1H-pyrazino[1,2-a]quinolin-8-yl)-5H-pyrrolo[2,3-b]pyrazin-7-yl)-N-(2-hydroxy-2-methylpropyl)-N-methylbenzamide], the IC50 was 52 nM.
`Cc1cc(-c2cnc3[nH]cc(-c4ccc(C(=O)N(C)C[C@H](C)O)cc4)c3c2)cc2c1N1CCN(C)C[C@@H]1CC2` [Example 2B, 4-(5-((S)-3,10-dimethyl-2,3,4,4a,5,6-hexahydro-1H-pyrazino[1,2-a]quinolin-8-yl)-1H-pyrrolo[2,3-b]pyridin-3-yl)-N—((S)-2-hydroxypropyl)-N-methylbenzamide]: the IC50 was determined as 19 nM.
For `Cc1cc(-c2cnc3[nH]cc(-c4ccc(C(=O)N(C)C[C@@H](C)O)cc4)c3c2)cc2c1N1CCN(C)C[C@H]1CC2` [Example 3A, 4-(5-((R)-3,10-dimethyl-2,3,4,4a,5,6-hexahydro-1H-pyrazino[1,2-a]quinolin-8-yl)-1H-pyrrolo[2,3-b]pyridin-3-yl)-N—((R)-2-hydroxypropyl)-N-methylbenzamide] the value was 21 nM.
With `Cc1cc(-c2cnc3[nH]cc(-c4ccc(C(=O)N(C)C[C@H]5CCOC5)cc4)c3c2)cc2c1N1CCN(C)C[C@@H]1CC2` [Example 5B, 4-(5-((S)-3,10-dimethyl-2,3,4,4a,5,6-hexahydro-1H-pyrazino[1,2-a]quinolin-8-yl)-1H-pyrrolo[2,3-b]pyridin-3-yl)-N-methyl-N—(((R)-tetrahydrofuran-3-yl)methyl)benzamide], the concentration for half-maximal inhibition (IC50) was found to be 27 nM.
In the case of `Cc1cc(-c2c[nH]c3ncc(-c4cc(C)c5c(c4)CC[C@@H]4CN(C)CCN54)nc23)ccc1C(=O)N1CC2(COC2)C1` [Example 8A, (R)-(4-(2-(3,10-dimethyl-2,3,4,4a,5,6-hexahydro-1H-pyrazino[1,2-a]quinolin-8-yl)-5H-pyrrolo[2,3-b]pyrazin-7-yl)-2-methylphenyl)(2-oxa-6-azaspiro[3.3]heptan-6-yl)methanone], the half-inhibitory concentration (IC50) was 58 nM.
Consider `Cc1cc(-c2cnc3[nH]cc(-c4ccc(C(=O)N(C)C)cc4)c3n2)cc2c1N1CCN(C)C[C@H]1CC2` [Example 7A, (R)-4-(2-(3,10-dimethyl-2,3,4,4a,5,6-hexahydro-1H-pyrazino[1,2-a]quinolin-8-yl)-5H-pyrrolo[2,3-b]pyrazin-7-yl)-N,N-dimethylbenzamide], for which the IC50 was 23 nM.
Take `Cc1cc(-c2c[nH]c3ncc(-c4cc(C)c5c(c4)CC[C@H]4CN(C)CCN54)nc23)ccc1C(=O)N(C)C` [Example 6B, (S)-4-(2-(3,10-dimethyl-2,3,4,4a,5,6-hexahydro-1H-pyrazino[1,2-a]quinolin-8-yl)-5H-pyrrolo[2,3-b]pyrazin-7-yl)-N,N,2-trimethylbenzamide]: the IC50 came out at 47 nM.
With `Cc1cc(-c2cnc3[nH]cc(-c4ccc(C(=O)N(C)C[C@H]5CCOC5)cc4)c3c2)cc2c1N1CCN(C)C[C@H]1CC2` [Example 5A, 4-(5-((R)-3,10-dimethyl-2,3,4,4a,5,6-hexahydro-1H-pyrazino[1,2-a]quinolin-8-yl)-1H-pyrrolo[2,3-b]pyridin-3-yl)-N-methyl-N—(((R)-tetrahydrofuran-3-yl)methyl)benzamide], the IC50 amounted to 32 nM.
Turning to `Cc1cc(-c2c[nH]c3ncc(-c4cc(C)c5c(c4)CC[C@H]4CN(C)CCN54)nc23)ccc1C(=O)N(C)CC(C)(C)O` [Example 13B, (S)-4-(2-(3,10-dimethyl-2,3,4,4a,5,6-hexahydro-1H-pyrazino[1,2-a]quinolin-8-yl)-5H-pyrrolo[2,3-b]pyrazin-7-yl)-N-(2-hydroxy-2-methylpropyl)-N,2-dimethylbenzamide], the IC50 turned out to be 96 nM.
`Cc1cc(-c2cnc3[nH]cc(-c4ccc(C(=O)N(C)CC(C)(C)O)cc4)c3n2)cc2c1N1CCN(C)C[C@H]1CC2` [Example 12A, (R)-4-(2-(3,10-dimethyl-2,3,4,4a,5,6-hexahydro-1H-pyrazino[1,2-a]quinolin-8-yl)-5H-pyrrolo[2,3-b]pyrazin-7-yl)-N-(2-hydroxy-2-methylpropyl)-N-methylbenzamide]: the half-inhibitory concentration (IC50) is 52 nM.
For `Cc1cc(-c2cnc3[nH]cc(-c4ccc(C(=O)N5CC6(COC6)C5)cc4)c3n2)cc2c1N1CCN(C)C[C@@H]1CC2` [Example 9B, (S)-(4-(2-(3,10-dimethyl-2,3,4,4a,5,6-hexahydro-1H-pyrazino[1,2-a]quinolin-8-yl)-5H-pyrrolo[2,3-b]pyrazin-7-yl)phenyl)(2-oxa-6-azaspiro[3.3]heptan-6-yl)methanone], the 50% inhibitory concentration (IC50) was found to be 21 nM.
In the case of `Cc1cc(-c2cnc3[nH]cc(-c4ccc(C(=O)N(C)C)cc4)c3n2)cc2c1N1CCN(C)C[C@@H]1CC2` [Example 7B, (S)-4-(2-(3,10-dimethyl-2,3,4,4a,5,6-hexahydro-1H-pyrazino[1,2-a]quinolin-8-yl)-5H-pyrrolo[2,3-b]pyrazin-7-yl)-N,N-dimethylbenzamide], the IC50 stood at 22 nM.
On to `Cc1cc(-c2cnc3[nH]cc(-c4ccc(C(=O)N(C)C[C@H](C)O)cc4)c3c2)cc2c1N1CCN(C)C[C@H]1CC2` [Example 2A, 4-(5-((R)-3,10-dimethyl-2,3,4,4a,5,6-hexahydro-1H-pyrazino[1,2-a]quinolin-8-yl)-1H-pyrrolo[2,3-b]pyridin-3-yl)-N—((S)-2-hydroxypropyl)-N-methylbenzamide], for which the IC50 was 14 nM.
As to `Cc1cc(-c2c[nH]c3ncc(-c4cc(C)c5c(c4)CC[C@@H]4CN(C)CCN54)nc23)ccc1C(=O)N(C)CC(C)(C)O` [Example 13A, (R)-4-(2-(3,10-dimethyl-2,3,4,4a,5,6-hexahydro-1H-pyrazino[1,2-a]quinolin-8-yl)-5H-pyrrolo[2,3-b]pyrazin-7-yl)-N-(2-hydroxy-2-methylpropyl)-N,2-dimethylbenzamide], the half-inhibitory concentration (IC50) came to 101 nM.
In the case of `Cc1cc(-c2cnc3[nH]cc(-c4ccc(C(=O)N(C)C[C@@H](C)O)cc4)c3c2)cc2c1N1CCN(C)C[C@@H]1CC2` [Example 3B, 4-(5-((S)-3,10-dimethyl-2,3,4,4a,5,6-hexahydro-1H-pyrazino[1,2-a]quinolin-8-yl)-1H-pyrrolo[2,3-b]pyridin-3-yl)-N—((R)-2-hydroxypropyl)-N-methylbenzamide], the IC50 amounted to 18 nM.
